Results on 3 compounds are retold here after US7863265B2, “2-azetidinone derivatives and their use as cholesterol absorption inhibitors for the treatment of hyperlipidaemia” (AstraZeneca AB, priority 2005, dated 2011).

For series [1], the system named is 14C-cholesterol absorption. Description: In vivo testing of cholesterol absorption inhibitors (A). Particulars: 0.2 μmol/kg by gavage, procedure A, C57BL/6 female mice. The protocol: In Vivo Testing of Cholesterol Absorption Inhibitors (A)
C57BL/6 female mice were maintained on regular chow diet and housed in individual cages to collect faeces. Mice were fasted for 3 hours and then gavaged with vehicle or compound. Half an hour later the mice were gavaged with radiolabelled cholesterol. Six hours after the ^14C-cholesterol gavage blood samples were taken via the tail and plasma prepared to determine how much cholesterol were absorbed. 24 hours after the gavage of ^14C-cholesterol the mice were bled and plasma were prepared for analysis. Faeces were collected for 24 hours to assess absorption efficiency.

Series [2] in a line: Absorption in a Caco-2 cells model. Format: in vitro ADME. The following applies: human. How it is done:
(§1) Absorption of the compounds of formula (I) was tested in a Caco-2 cells model (Gastroenterology 1989, 96, 736): […]

Another series concerns Caco-2 cells. Description: Absorption in a Caco-2 cells model. Format: in vitro ADME. The protocol:
as §1

Turning to `CC(C)(c1ccccc1)[C@@H](NC(=O)CNC(=O)COc1ccc([C@@H]2[C@@H](SCC(O)c3ccc(F)cc3)C(=O)N2c2ccc(F)cc2)cc1)C(=O)O` (single isomer, unassigned) [Example 5, N-{[4-((2R,3R)-1-(4-fluorophenyl)-3-{[(2R or S)-2-(4-fluorophenyl)-2-hydroxyethyl]thio}-4-oxoazetidin-2-yl)phenoxy]acetyl}glycyl-β,β-dimethyl-D-phenylalanine], the “inhibition of 14C-cholesterol absorption” value in series [1] amounted to 78%.

As for `O=C(COc1ccc([C@@H]2[C@@H](SCC(O)c3ccc(F)cc3)C(=O)N2c2ccc(F)cc2)cc1)NCC(=O)N[C@H](CC1CCCCC1)C(=O)O` (single isomer, unassigned) [Example 4, N-{[4-((2R,3R)-1-(4-fluorophenyl)-3-{[(2R or S)-2-(4-fluorophenyl)-2-hydroxyethyl]thio}-4-oxoazetidin-2-yl)phenoxy]acetyl}glycyl-3-cyclohexyl-D-alanine], in series [1], the “inhibition of 14C-cholesterol absorption” value worked out at 75%. In series [2], this compound came in with a Papp of 0.04 ×10⁻⁶ cm/s.

`CC(C)(C)[C@@H](NC(=O)CNC(=O)COc1ccc([C@@H]2[C@@H](SC[C@H](O)c3ccc(F)cc3)C(=O)N2c2ccc(F)cc2)cc1)C(=O)O` [Example 3, N-{[4-((2R,3R)-1-(4-fluorophenyl)-3-{[(2R or 6)-2-(4-fluorophenyl)-2-hydroxyethyl]thio}-4-oxoazetidin-2-yl)phenoxy]acetyl}glycyl-3-methyl-D-valine]: the “inhibition of 14C-cholesterol absorption” value in series [1] came to 73%. In the series on Caco-2 cells, this compound registered a Caco value of 0.02 ×10⁻⁶ cm/s.
